Assay results taken from patent US12528802B2, “Heterocyclic compound” (Takeda Pharmaceutical Company Limited, priority 2019, dated 2026).

target: T1, glucosylceramide synthase (Homo sapiens, UniProt Q16739); assay: Glucosylceramide synthase (GCS) enzyme assay, microsome fraction, C8 glucosylceramide quantified by Rapidfire MS/MS; format: biochemical; conditions: test compound 10 μM; 1.7 μM UDP-glucose, 3 μM C8 ceramide; room temperature 60 min; read-out: GCS enzyme inhibitory rate at 10 μM (%) (% of control)
T1 construct: made in house; host or cells: Expi293F cells (transient expression, pcDNA3.3-TOPO vector); microsome fraction used as enzyme source
T1 sequence (Q16739 1-394): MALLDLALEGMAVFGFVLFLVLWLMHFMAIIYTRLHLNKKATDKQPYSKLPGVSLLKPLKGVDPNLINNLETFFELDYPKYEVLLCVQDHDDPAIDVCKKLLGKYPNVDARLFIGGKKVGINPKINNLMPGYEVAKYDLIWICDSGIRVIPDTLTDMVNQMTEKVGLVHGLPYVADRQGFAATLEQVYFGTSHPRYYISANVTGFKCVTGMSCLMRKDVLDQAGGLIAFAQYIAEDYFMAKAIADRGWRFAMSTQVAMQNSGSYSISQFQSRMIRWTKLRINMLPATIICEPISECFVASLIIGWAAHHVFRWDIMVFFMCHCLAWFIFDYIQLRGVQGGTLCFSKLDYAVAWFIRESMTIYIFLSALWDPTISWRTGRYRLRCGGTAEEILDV
How it was run: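 Test compound, 10 μM final, was run against human GCS from transfected Expi293F microsome fractions, using substrate solution of 6 μM C8 ceramide (in DOPC liposomes) plus 3.4 μM UDP-glucose, pH 7.5 Tris buffer, 60 min, room temperature. Product C8 glucosylceramide measured by Rapidfire MS/MS against an internal standard, % inhibition referenced to no-enzyme and DMSO wells.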

SMILES | inhibition at 10 µM [%]
CC(C)(O)c1ccc(N2Cc3c(ccnc3-c3ccc(F)cc3OCC(F)F)C2=O)nc1 [Example 289, 4-[2-(2,2-difluoroethoxy)-4-fluorophenyl]-2-[5-(2-hydroxypropan-2-yl)pyridin-2-yl]-2,3-dihydro-1H-pyrrolo [3,4-c]pyridin-1-one] | 98
Cc1cc2c(c(-c3ccccc3OCC(F)(F)F)n1)CN(c1ccc(OCC3(OC4CCCCO4)CC3)cc1)C2=O (racemic) [Example 374, rac-6-methyl-2-[4-({1-[(oxan-2-yl)oxy]cyclopropyl}methoxy)phenyl]-4-[2-(2,2,2-trifluoroethoxy)phenyl]-2,3-dihydro-1H-pyrrolo[3,4-c]pyridin-1-one] | 100
O=C1c2ccnc(-c3ccc(F)cc3OCC(F)(F)F)c2CN1c1ccc(OC(F)F)nn1 [Example 90, 2-[6-(difluoromethoxy)pyridazin-3-yl]-4-[4-fluoro-2-(2,2,2-trifluoroethoxy)phenyl]-2,3-dihydro-1H-pyrrolo[3,4-c]pyridin-1-one] | 85
Cc1cc2c(c(-c3ccccc3OCC(F)(F)F)n1)CN(c1ccc(OCC(C)(C)O)cc1)C2=O [Example 364, 2-[4-(2-hydroxy-2-methylpropoxy)phenyl]-6-methyl-4-[2-(2,2,2-trifluoroethoxy)phenyl]-2,3-dihydro-1H-pyrrolo [3,4-c]pyridin-1-one] | 100
CC(C)(C)[Si](C)(C)OC1(c2ccc(N3Cc4c(ccnc4-c4ccccc4OCC(F)(F)F)C3=O)nc2)CC1 [Example 266, 2-[5-(1-{[tert-butyl(dimethyl)silyl]oxy}cyclopropyl)pyridin-2-yl]-4-[2-(2,2,2-trifluoroethoxy)phenyl]-2,3-dihydro-1H-pyrrolo[3,4-c]pyridin-1-one] | 99
O=C1c2ccnc(-c3ccncc3OCC(F)(F)F)c2CN1c1ccc(OC(F)F)cc1 [Example 104, 2-[4-(difluoromethoxy)phenyl]-4-[3-(2,2,2-trifluoroethoxy)pyridin-4-yl]-2,3-dihydro-1H-pyrrolo[3,4-c]pyridin-1-one] | 99
CC(C)(O)COc1ccc(N2Cc3c(cn(C(F)F)c(=O)c3-c3ccccc3OCC(F)(F)F)C2=O)cc1 [Example 369, 5-(difluoromethyl)-2-[4-(2-hydroxy-2-methylpropoxy)phenyl]-7-[2-(2,2,2-trifluoroethoxy)phenyl]-1H-pyrrolo[3,4-c]pyridine-3,6(2H,5H)-dione] | 100
O=C1c2ccnc(-c3ccc(F)cc3OCC(F)(F)F)c2CN1c1ccc(F)cc1 [Example 13, 2-(4-fluorophenyl)-4-[4-fluoro-2-(2,2,2-trifluoroethoxy)phenyl]-2,3-dihydro-1H-pyrrolo[3,4-c]pyridin-1-one] | 63
COc1cnc(C)cc1-c1nccc2c1CN(c1ccc(F)cc1)C2=O [Example 33, 2-(4-fluorophenyl)-4-(5-methoxy-2-methylpyridin-4-yl)-2,3-dihydro-1H-pyrrolo[3,4-c]pyridin-1-one] | 68
O=C1c2ccnc(-c3ccccc3OCC(F)(F)F)c2CN1c1cnn(CC2(F)COC2)c1 [Example 247, 2-{1-[(3-fluorooxetan-3-yl)methyl]-1H-pyrazol-4-yl}-4-[2-(2,2,2-trifluoroethoxy)phenyl]-2,3-dihydro-1H-pyrrolo[3,4-c]pyridin-1-one] | 97
CC(=O)c1ccc(N2CC3=C(OC[C@H](C)N=C3c3ccccc3OCC(F)(F)F)C2=O)cc1 [Example 334, (3S)-7-(4-acetylphenyl)-3-methyl-5-[2-(2,2,2-trifluoroethoxy)phenyl]-2,3,6,7-tetrahydro-8H-pyrrolo [3,4-f][1,4]oxazepin-8-one] | 88
Fc1ccc(N2Cc3ccnc(-c4ccccc4OCC(F)(F)F)c3C2)cc1 [Example 168, 2-(4-fluorophenyl)-4-[2-(2,2,2-trifluoroethoxy)phenyl]-2,3-dihydro-1H-pyrrolo[3,4-c]pyridine] | 100
COc1ccccc1-c1nccc2c1CN(c1ccc(Oc3ccccc3)cc1)C2=O [Example 5, 4-(2-methoxyphenyl)-2-(4-phenoxyphenyl)-2,3-dihydro-1H-pyrrolo[3,4-c]pyridin-1-one] | 100
CN(C)C(=O)c1ccc(N2Cc3ccnc(-c4ccc(F)cc4OCC(F)(F)F)c3C2)cc1 [Example 141, 4-{4-[4-fluoro-2-(2,2,2-trifluoroethoxy)phenyl]-1,3-dihydro-2H-pyrrolo[3,4-c]pyridin-2-yl}-N,N-dimethylbenzamide] | 90
CC(C)(O)c1ccc(N2Cc3c(cc(C(F)F)nc3-c3ccccc3OCC(F)(F)F)C2=O)cn1 [Example 328, 6-(difluoromethyl)-2-[6-(2-hydroxypropan-2-yl)pyridin-3-yl]-4-[2-(2,2,2-trifluoroethoxy)phenyl]-2,3-dihydro-1H-pyrrolo[3,4-c]pyridin-1-one] | 100
COc1ccccc1-c1nccc2c1CN(c1ccc(OC(F)(F)F)cn1)C2=O [Example 29, 4-(2-methoxyphenyl)-2-[5-(trifluoromethoxy)pyridin-2-yl]-2,3-dihydro-1H-pyrrolo[3,4-c]pyridin-1-one] | 96
COc1ccccc1-c1nccc2c1CN(c1ccc(C(F)(F)F)cn1)C2=O [Example 32, 4-(2-methoxyphenyl)-2-[5-(trifluoromethyl)pyridin-2-yl]-2,3-dihydro-1H-pyrrolo[3,4-c]pyridin-1-one] | 93
CC(C)(C#N)c1ccc(N2Cc3c(ccnc3-c3ccc(F)cc3OCC(F)(F)F)C2=O)cc1 [Example 269, 2-(4-{4-[4-fluoro-2-(2,2,2-trifluoroethoxy)phenyl]-1-oxo-1,3-dihydro-2H-pyrrolo[3,4-c]pyridin-2-yl}phenyl)-2-methylpropanenitrile] | 99
O=C1c2ccnc(-c3ccc(F)cc3OCC(F)(F)F)c2CN1c1cnn(CC(F)F)c1 [Example 93, 2-[1-(2,2-difluoroethyl)-1H-pyrazol-4-yl]-4-[4-fluoro-2-(2,2,2-trifluoroethoxy)phenyl]-2,3-dihydro-1H-pyrrolo[3,4-c]pyridin-1-one] | 95
O=C1c2ccnc(-c3ccccc3OC(F)F)c2CN1c1ccc(F)cn1 [Example 63, 4-[2-(difluoromethoxy)phenyl]-2-(5-fluoropyridin-2-yl)-2,3-dihydro-1H-pyrrolo[3,4-c]pyridin-1-one] | 96
Cc1cc2c(c(-c3ccc(F)cc3OCC(F)(F)F)n1)CN(c1ccc(C(C)(C)O)cc1)C2=O [Example 351, 4-[4-fluoro-2-(2,2,2-trifluoroethoxy)phenyl]-2-[4-(2-hydroxypropan-2-yl)phenyl]-6-methyl-2,3-dihydro-1H-pyrrolo[3,4-c]pyridin-1-one] | 100
COC(=O)c1ccc(N2CC3=C(OCCN=C3c3ccccc3OCC(F)(F)F)C2=O)cc1 [Example 335, methyl 4-{8-oxo-5-[2-(2,2,2-trifluoroethoxy)phenyl]-2,3,6,8-tetrahydro-7H-pyrrolo[3,4-f] [1,4]oxazepin-7-yl}benzoate] | 95
CC(C)(C#N)COc1ccc(N2Cc3c(cc(C(C)(C)O)nc3-c3ccccc3OCC(F)F)C2=O)cc1 [Example 362, 3-(4-{4-[2-(2,2-difluoroethoxy)phenyl]-6-(2-hydroxypropan-2-yl)-1-oxo-1,3-dihydro-2H-pyrrolo[3,4-c]pyridin-2-yl}phenoxy)-2,2-dimethylpropanenitrile] | 100
COC(=O)c1ccc(N2CC3=C(OC[C@@H](C)N=C3c3ccccc3OCC(F)(F)F)C2=O)cc1 [Example 333, methyl 4-{(3R)-3-methyl-8-oxo-5-[2-(2,2,2-trifluoroethoxy)phenyl]-2,3,6,8-tetrahydro-7H-pyrrolo [3,4-f][1,4]oxazepin-7-yl}benzoate] | 97
N#Cc1ccc(N2Cc3c(ccnc3-c3ccc(F)cc3OC(F)F)C2=O)nc1 [Example 70, 6-{4-[2-(difluoromethoxy)-4-fluorophenyl]-1-oxo-1,3-dihydro-2H-pyrrolo[3,4-c]pyridin-2-yl}pyridine-3-carbonitrile] | 53
CC(C)(O)Cc1ccc(N2Cc3c(ccnc3-c3ccc(F)cc3OCC(F)(F)F)C2=O)cc1 [Example 305, 4-[4-fluoro-2-(2,2,2-trifluoroethoxy)phenyl]-2-[4-(2-hydroxy-2-methylpropyl)phenyl]-2,3-dihydro-1H-pyrrolo[3,4-c]pyridin-1-one] | 99
O=C1c2ccnc(-c3ccc(F)cc3OCC(F)(F)F)c2CN1c1ccc(OC(F)F)nc1 [Example 65, 2-[6-(difluoromethoxy)pyridin-3-yl]-4-[4-fluoro-2-(2,2,2-trifluoroethoxy)phenyl]-2,3-dihydro-1H-pyrrolo[3,4-c]pyridin-1-one] | 95
O=C1c2ccnc(-c3ccccc3OCC(F)(F)F)c2CN1c1ccc(C2(O)CC2)cc1 [Example 222, 2-[4-(1-hydroxycyclopropyl)phenyl]-4-[2-(2,2,2-trifluoroethoxy)phenyl]-2,3-dihydro-1H-pyrrolo[3,4-c]pyridin-1-one] | 100
O=C1c2ccnc(-c3ccc(F)cc3OC(F)F)c2CN1c1ccc(F)cn1 [Example 52, 4-[2-(difluoromethoxy)-4-fluorophenyl]-2-(5-fluoropyridin-2-yl)-2,3-dihydro-1H-pyrrolo[3,4-c]pyridin-1-one] | 67
